Data set [1] deals with D-Gal+LPS-treated mice. As to the kind of experiment: D-Gal+LPS-induced liver damage (hepatitis) in mice treated with p38 inhibitors. The class given is in vivo. The note with it: WT mice, inhibitor i.p. 15mg/kg prior to LPS injection. From the text: (§1) MKK3 and MKK6 are the main regulators of the α, β, γ and δ p38MAPK isoforms. […] The specific action of these inhibitors on MAPK pathway activity was firstly examined. […] No changes in ERK or JNK phosphorylation were observed.
(§2) Mkk3^-/- (B6.129-Map2k3^tm1Flv), Mkk6^-l- (B6.129-Map2k6^tm1Flv) were as previously described. p38γ (B6.129-Mapk12^tm1) and p38δ (B6.129-Mapk13^tm1) mice were crossed with B6.129P2-Lyz2tm1(cre)Ifo/J and back-crossed for ten generations to the C57BL/6J background (The Jackson Labs) and genotyped by PCR analysis of genomic DNA. Radiation chimeras were generated by exposing recipient mice to two doses of ionizing radiation ([…]) and reconstituting them with 2x10^7 donor bone marrow cells by injection into the tail vein. […] Specificity of the depletion of cell populations was determined by flow cytometry of blood samples collected during the experiment.
Serum activities of alanine transaminase (ALT) and aspartate aminotrasferase (AST) were measured using the ALT and AST Reagent Kit (Biosystems Reagents) with a Benchmark Plus Microplate Spectrophotometer. Serum concentrations of cytokines were measured by multiplexed ELISA with a Luminex 200 analyzer (Millipore). […]

For data set [2], the system named is p38α/β. The experiment in a line: MAPK pathway activity: phosphorylation of p38α substrate HSP27 (immunoblot). The data set is classed as in vivo. Particulars: mice treated prior to LPS injection. As for the experimental part: (§3) MKK3 and MKK6 are the main regulators of the α, β, γ and δ p38MAPK isoforms.
(§4) Tissue extracts were prepared using Triton lysis buffer (20 mM Tris [pH 7.4], 1% Triton X-100, 10% glycerol, 137mM NaCl, 2mM EDTA, 25mM β-glycerophosphate, 1 mM sodium orthovanadate, 1mM phenylmethylsulfonyl fluoride, and 10µg/mL aprotinin and leupeptin). Extracts (30µg protein) and immunoprecipitates (prepared from 2 mg protein) were examined by protein immunoblot analysis with antibodies to ERK1/2, phospho-ERK1/2, phospho-MKK3/6, p38α MAPK, phospho-p38, phospho-hsp27, phospho-JNK1/2, JNK1/2, caspase 3, cleaved caspase 3, cleaved PARP and phospho-eEF2 kinase (Ser366), all from Cell Signaling and MKK3 (Pharmingen), MKK6 (Stressgen), and GAPDH and eEF2 (Santa Cruz Biotechnology). The anti-p38γ and p38δ antibodies were raised against the peptides which correspond to the C termini of the proteins.
(In general: A western blot detects proteins with antibodies after separation by electrophoresis.)

Data set [3] concerns ERK. As to the kind of experiment: MAPK pathway activity: ERK phosphorylation (immunoblot). The data set is classed as in vivo. Particulars: mice treated prior to LPS injection. As for the experimental part:
as §3, §4

Data set [4] deals with JNK. The experiment in a line: MAPK pathway activity: JNK phosphorylation (immunoblot). The class given is in vivo. Particulars: mice treated prior to LPS injection. As for the experimental part:
as §3, §4

Data set [5] relates to TNFα. As to the kind of experiment: serum TNFα in D-Gal+LPS-treated mice (inhibitors). The data set is classed as in vivo.
Description: as §1, §2
(§5) Serum activities of alanine transaminase (ALT) and aspartate aminotrasferase (AST) were measured using the ALT and AST Reagent Kit (Biosystems Reagents) with a Benchmark Plus Microplate Spectrophotometer. Serum concentrations of cytokines were measured by multiplexed ELISA with a Luminex 200 analyzer (Millipore).

For data set [6], the system named is IL6. The experiment in a line: serum IL6 in D-Gal+LPS-treated mice (inhibitors). The class given is in vivo.
Description: as §1, §2, §5

Data set [7] has as its system association of eEF2 with Tnfα mRNA. As to the kind of experiment: RNA-immunoprecipitation assay: eEF2 binding to Tnfα mRNA in RAW 264.7 cells. The class given is cell-based, Mouse. Particulars: RAW 264.7 cells pretreated 10µM for 30 min before LPS (60min). As for the experimental part: (A-D) BM-derived macrophages from p38γ/δ^Lyz-KO and Lyzs-cre mice were treated with LPS (10µg/ml) or TNFα (20ng/ml). Data were analyzed by two-way ANOVA coupled to Bonferroni post-tests. • (A) ELISA of TNFα and IL-6 in supernatants. • (B) qRT-PCR of Tnfα and Il-6 mRNA normalized to Gapdh, • (C) Immunoblot of BM-derived macrophage (BMM) lysates. • (D) Flow cytometry of phospho-p38 in BM-derived macrophages stimulated with LPS and TNFα for 30 min. Intracellular phospho-p38 is depicted in blue; red corresponds to the isotype control. • (D-I) Cells were treated with LPS. Tnfα mRNA was detected by qRT-PCR in immunoprecipitates (1mg protein) obtained with anti-eEF2. mRNA amounts are expressed relative to the amount detected in control IgG immunoprecipitates. Data were analyzed by Student's t-test unless otherwise indicated. • (E) Tnfα mRNA in RAW 264.7 cell immunoprecipitates. • (F) Tnfα, Hif1α, and Il-6 mRNA in RAW 264.7 cell immunoprecipitates. […] Tnfα mRNA was measured in immunoprecipitates. • (G-H) Tnfα mRNA in immunoprecipitates of BM-derived macrophages from Lyzs-cre and 38γ/δ^Lyz-KO mice (G) or WT or ΔMKK3/6 mice (H) after stimulation (60min). eEF2 in immunoprecipitates was detected by immunoblot (upper panel).
To assess whether eEF2 controls TNFα elongation it was examined the binding of eEF2 to Tnfα mRNA in immunoprecipitates of mRNA-eEF2 complexes in RAW cells. […]

The conditions of data set [8]: clinical use; cited from earlier work.
Data set [9] concerns TNFα. Particulars: healthy males; cited from earlier work.
Data set [10] has as its target T1, p38δ (Mus musculus, UniProt Q9Z1B7).
T1 sequence (Q9Z1B7 1-366): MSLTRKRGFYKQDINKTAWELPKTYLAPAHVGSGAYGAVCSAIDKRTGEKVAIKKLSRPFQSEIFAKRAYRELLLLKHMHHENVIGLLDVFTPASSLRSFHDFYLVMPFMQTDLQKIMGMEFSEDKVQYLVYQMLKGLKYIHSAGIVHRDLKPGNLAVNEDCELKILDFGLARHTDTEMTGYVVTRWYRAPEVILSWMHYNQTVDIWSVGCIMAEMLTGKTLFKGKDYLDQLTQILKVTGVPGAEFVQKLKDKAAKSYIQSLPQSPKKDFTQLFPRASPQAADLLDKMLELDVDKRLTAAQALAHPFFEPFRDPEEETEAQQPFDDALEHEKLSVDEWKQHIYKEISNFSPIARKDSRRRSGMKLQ
The note with it: mice treated prior to LPS injection. As for the experimental part:
as §3, §4

Molecules are shown by their SMILES. “Also recorded” adds a separate entry of the source. A value given as a limit tells only on which side of the number the result lay.

`Cc1ccc(-n2nc(C(C)(C)C)cc2NC(=O)Nc2ccc(OCCN3CCOCC3)c3ccccc23)cc1` [BIRB796]: the “D-Gal+LPS-induced liver damage (hemorrhage, apoptosis and necrosis)” value in data set [1] was “improves liver condition; also recorded: protected”. In addition, the “inhibition of p38α/β (loss of phosphorylation of p38α substrate HSP27)” value in data set [2] is “efficiently inhibited”. In addition, the ERK phosphorylation result in [3] is reported as “No changes”. Further, the JNK phosphorylation result in data set [4] is “No changes”. Further, in [5], the “serum levels of TNFα” value is “reduced”. In addition, in [6], the “serum levels of IL6” value is listed as “reduced”. Besides, in [7], the “association of eEF2 with Tnfα mRNA” value is listed as “abolished”. Further, the liver enzyme elevations entry in data set [8] was “some liver enzyme elevations”.

On to `Cn1c(NC[C@@H](N)Cc2ccccc2)nc(-c2ccncc2)c(-c2ccc3ccccc3c2)c1=O` [AMG 548], for which the “inhibition of ex-vivo LPS-induced TNFα” value in data set [9] is on record as above 85%. For the same compound, the liver enzyme elevations result in data set [8] is given as “random liver enzyme elevations”.

Take `C[S+]([O-])c1ccc(-c2nc(-c3ccncc3)c(-c3ccc(F)cc3)[nH]2)cc1` (stereo not drawn) [SB203580]: the “D-Gal+LPS-induced liver damage (hemorrhage, apoptosis and necrosis)” value in [1] was “intensifies; also recorded: exacerbated”. Further, the “inhibition of p38α/β (loss of phosphorylation of p38α substrate HSP27)” value in data set [2] was “efficiently inhibited”. Also, the “inhibition of p38δ activation (suppression of phosphorylation of its substrate eEF2K)” value in data set [10] is “only BIRB796 was able to inhibit”. Also, the ERK phosphorylation result in [3] was “No changes”. In addition, in data set [4], the JNK phosphorylation result is listed as “No changes”.

(Values after EP2727596A1, “eEF2/eEF2K as therapeutic target for treating TNF-alpha-related diseases” (Fundación Centro Nacional de Investigaciones …, priority 2012, dated 2014).)
